{"source": "patent US20260132103A1", "about": "“Bumetanide Derivatives for the Therapy of Stroke and Other Neurological Diseases/Disorders Involving NKCCs” (University of Pittsburgh - Of the Commonwealth System of …, priority 2018, published 2026)", "target": "T1, pNKCC1 and tNKCC1 proteins (Mus musculus, UniProt P55012)", "T1 construct": "cell lysates were harvested for immunoblotting of pNKCC1 and tNKCC1 proteins; endogenous in cells; host or cells: GL26 and SB28-GFP mouse glioma cells", "T1 sequence (P55012 1-1205)": "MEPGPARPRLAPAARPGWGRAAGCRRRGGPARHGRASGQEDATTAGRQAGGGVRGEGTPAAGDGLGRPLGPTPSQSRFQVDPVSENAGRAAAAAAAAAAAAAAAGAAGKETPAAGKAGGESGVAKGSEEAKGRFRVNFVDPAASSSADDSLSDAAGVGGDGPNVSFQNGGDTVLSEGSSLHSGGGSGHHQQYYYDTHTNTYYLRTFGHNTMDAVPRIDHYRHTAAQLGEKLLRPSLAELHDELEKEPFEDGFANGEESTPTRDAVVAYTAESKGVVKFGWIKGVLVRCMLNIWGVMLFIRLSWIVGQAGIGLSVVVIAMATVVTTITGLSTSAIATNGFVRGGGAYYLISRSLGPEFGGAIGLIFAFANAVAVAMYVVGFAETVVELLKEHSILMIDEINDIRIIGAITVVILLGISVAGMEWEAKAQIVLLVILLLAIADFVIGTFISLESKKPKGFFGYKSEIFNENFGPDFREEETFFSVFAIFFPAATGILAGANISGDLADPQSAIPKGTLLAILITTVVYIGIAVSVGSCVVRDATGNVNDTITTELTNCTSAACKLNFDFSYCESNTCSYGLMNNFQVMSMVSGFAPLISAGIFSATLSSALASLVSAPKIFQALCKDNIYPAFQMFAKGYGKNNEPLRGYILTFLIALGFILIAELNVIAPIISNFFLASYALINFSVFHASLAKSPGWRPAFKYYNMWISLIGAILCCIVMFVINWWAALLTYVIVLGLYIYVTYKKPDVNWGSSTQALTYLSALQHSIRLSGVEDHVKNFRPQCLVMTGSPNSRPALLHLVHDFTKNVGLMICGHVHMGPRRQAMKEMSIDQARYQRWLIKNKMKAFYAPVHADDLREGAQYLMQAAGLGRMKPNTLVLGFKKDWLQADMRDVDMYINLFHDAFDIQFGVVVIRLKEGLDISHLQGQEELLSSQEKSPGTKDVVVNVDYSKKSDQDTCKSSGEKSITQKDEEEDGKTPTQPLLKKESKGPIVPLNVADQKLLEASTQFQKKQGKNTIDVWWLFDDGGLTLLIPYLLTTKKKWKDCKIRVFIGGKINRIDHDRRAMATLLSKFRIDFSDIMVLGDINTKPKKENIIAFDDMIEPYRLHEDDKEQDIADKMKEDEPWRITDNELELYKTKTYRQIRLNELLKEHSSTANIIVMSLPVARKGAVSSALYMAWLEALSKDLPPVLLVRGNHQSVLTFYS", "assay": "Immunoblotting of pNKCC1 and tNKCC1", "type": "cell-based", "settings": "GL26 and SB28-GFP cells, 6 h; BMT 10 μM, STS66 10 μM, TMZ 100 μM or combined", "procedure": "FIGS. 6A-6B: GL26 and SB28-GFP cells were exposed to BMT (10 μM), STS66 (10 μM), TMZ (100 μM) or combined for 6 h and cell lysates were harvested for immunoblotting of pNKCC1 and tNKCC1 proteins. Data are means±SEM from six independent experiments. *P<0.05, **P<0.01, ***P<0.001.\nGL26 and SB28-GFP cells were washed with ice-cold PBS and incubated in RIPA buffer containing 1 pill of phosSTOP and 2 mM protease inhibitors as described before (Algharabli et al. 2012). Cells were lysed by sonication at 4° C. Protein content of the cellular lysate was determined with BCA Protein Assay Kit. Samples and sample buffer (Thermo Scientific, Rockford, IL, USA) were boiled at 95° C. for 5 min. The samples were then electrophoretically separated on 10% SDS gels. After transferring to PVDF membranes, the blots were blocked in 10% nonfat dry milk in TBS-T (Tris-buffered saline, 0.05% Tween-20) for 1 hour at room temperature and then incubated with appropriate primary antibodies (pNKCC1, 1:300 and tNKCC1, 1:3000) at 4° C. overnight. After rinsing with TBS-T, the blots were incubated with horseradish peroxidase-conjugated secondary IgG (1:2000) for 1 hr at RT. Bound antibody was visualized with an enhanced chemiluminescence assay. Protein band signal intensities were analyzed using ImageJ and normalized to α-tubulin expression.", "data": [{"smiles": "CCCCNc1cc(CNCC(F)(F)F)cc(S(N)(=O)=O)c1Oc1ccccc1", "note": "[STS66, 3-(Butylamino)-2-phenoxy-5-[(2,2,2-trifluoroethylamino)methyl]benzenesulfonamide]", "values": [{"measurement": "pNKCC1 and tNKCC1 expression", "result": "did not show significant decrease"}]}]}
